According to patent US20250066292A1 (The Regents of the University of California, priority 2021, published 2025):
One block for each molecule: values may come before it.

Experiments:
[1] = system: CDAHFD induced mouse models of NASH; assay: Murine CDAHFD NASH Study 2 comparing prodrug analogs BL0940 and BL0948; assay type: in vivo, mouse (C57BL/6 male); conditions: lower dose of BL0940, once daily gavage
Source text: Mice had at least received 8 weeks of CDAHDF diet before starting the study and continued to receive this diet during the next phase of the study. There were 8 mice per group (C57BL/6 male).
• HD BL0940 (High dose) once daily by gavage therapy for 4 • LD BL0940 (low dose) once daily by gavage therapy for 4 • BL0948 once daily by gavage therapy for 4 weeks
The MW of BL0940 is higher than BL0948 and so a higher dose was given. That is, HD BL0940 and BL0948 had capability of releasing same number of D2-cysteamine molecules.

[2] = Prodrug stability and conversion in the medium and within the cell; assay type: in vitro ADME
Source text: This prodrug analog, BL0940, is very stable both in the medium and within the cell.

[3] = system: Dermal cystinotic fibroblasts; assay: Cystine Depletion Study with BL0948, BL0940 or D4-Cystamine; assay type: cell-based, human; conditions: 100 uM in medium, continual exposure
Protocol: (§1) Cystine Depletion Study. Dermal cystinotic fibroblasts were cultured in medium containing BL0948, BL0940 or D4-Cystamine at the same 100 uM concentration:
Intracellular cystine depletion over time. […] This likely represents a rapid exposure to D2-cysteamine after intracellular uptake. D4-cystamine will most likely reduce after crossing the cell membrane (peak level seen at 45 mins). BL0948 most likely has reduced to D2-cysteamine and the rearranged isomer in the medium before crossing the cell membrane. It is possible that after extracellular reduction that the ratio of D2-Cysteamine to rearranged analog is 10-20:1.

cystinotic fibroblasts [4] = assay: Intracellular D2-cysteamine and prodrug levels following continual drug exposure; assay type: cell-based, human; conditions: for intracellular D2-cysteamine levels: 100 uM in media, continual exposure
Protocol: as §1
Intracellular D2-cysteamine levels are measured following continual drug exposure (in media) to cystinotic fibroblasts (FIG. 7).

cystinotic fibroblasts [5] = assay: Glutathione and oxidized glutathione measurement during constant exposure; assay type: cell-based, human; conditions: 100 uM; for oxidized glutathione (GSSG) / ratio of GSH/GSSG: versus 0-minute controls
Protocol: (§2) In vitro experiments with prodrugs in cystinotic fibroblasts. Fibroblasts from a de-identified cystinotic patient were split 3× from 2 plates into 12 plates. An experimental compound, BL-0856, was studied using the following protocols. Several timepoints of cystamine was also performed for comparison. The constant incubation time series for the new compound was: 0, 15 min, 30 min, 1 h, 3 h, and 5 h. The cystamine timepoints were 0, 30 min, 1 h, and 5 h. There was also a washout experiment done for 2 timepoints of the experimental compound, where after 3 hours of constant incubation, the media was exchanged with no compound, and incubated for either 1 h or 3 h. Harvesting of cells on the plate went as follows 2× washes with PBS that included 5 mM N-ethylmaleimide for trapping free thiol groups, and then scraping the plates with an acidified organic solvent extraction solution containing d4-NEM-cysteamine, d4-cystine, d8-cystamine, ^13C^15N NEM-glutathione, and ^13C, ^15N GSSG as internal standards. All samples were run on an API 4500 triple quadrupole LC-MS/MS, with selective reaction monitoring (SRM/MRM) for the following compounds of interest: cystine, cysteine, cystamine, reduced glutathione, oxidized glutathione (GSSG). […] All data fit well to single exponential curves (either decay or association), except where mentioned.
Glutathione and oxidized glutathione measurement during constant cystamine or BL-0856 exposure: Fibroblast cultures are exposed to 100 uM cystamine or 100 uM BL-0856 for the following timepoints: 0 min, […], 30 min, 1 h, 3 h, and 5 h. Following incubation, cells are washed 2× in PBS containing N-ethylmaleimide. After removing the wash, the cells are harvested on ice using 80% acetonitrile/1% formic acid, containing stable isotope internal standard for glutathione and oxidized glutathione.

cystinotic fibroblasts [6] = assay: Cystine measurement after washout; assay type: cell-based, human; conditions: 100 uM for 3 h, then washout in regular media 0 min, 1 h
Protocol: as §2, with “mentioned. […]” for “mentioned.”

[7] = Stability of BL-0856 resuspended in water (LC-MS); assay type: physicochemical; conditions: 25 mM in water, 1-week post-resuspension
Protocol: Drug concentrations: BL-0856 powder was resuspended in water at a concentration of 25 mM. 40 μL of this solution was added to 10 mL of media for a final concentration of 100 uM. […] Based upon the LC-MS profile, BL-0856 was likely >80-90% pure (unhydrolyzed) when used in the experiments. A method for the reduced intermediate form was also made, but none of it was found present in the neat standard.

cystinotic fibroblasts [8] = assay: Cysteamine and cystamine (and prodrug) measurement during constant exposure; assay type: cell-based, human; conditions: 100 uM; for Cysteamine levels (intracellular) / cystamine levels (intracellular): constant exposure 0 min to 5 h
Protocol: as §2
Following incubation, cells are washed 2× in PBS containing N-ethylmaleimide.

cystinotic fibroblasts [9] = assay: Cystine measurement during constant cystamine or BL-0856 exposure; assay type: cell-based, human; conditions: 100 uM, constant exposure 0 min to 5 h, compared with cystamine
Protocol: Drug concentrations: BL-0856 powder was resuspended in water at a concentration of 25 mM. 40 μL of this solution was added to 10 mL of media for a final concentration of 100 uM.
Cystamine was made from high pH oxidation of cysteamine-bitartrate powder (w/Ammonium hydroxide), at a concentration of 25 mM. […] Since this was used for only several timepoints of a control, this was deemed sufficient for this purpose. The drug was also administered to cells at a final concentration of 100 uM.
In vitro experiments with prodrugs in cystinotic fibroblasts. Fibroblasts from a de-identified cystinotic patient were split 3× from 2 plates into 12 plates. An experimental compound, BL-0856, was studied using the following protocols. Several timepoints of cystamine was also performed for comparison. The constant incubation time series for the new compound was: 0, 15 min, 30 min, 1 h, 3 h, and 5 h. The cystamine timepoints were 0, 30 min, 1 h, and 5 h. There was also a washout experiment done for 2 timepoints of the experimental compound, where after 3 hours of constant incubation, the media was exchanged with no compound, and incubated for either 1 h or 3 h. […]

cystinotic fibroblasts [10] = assay: Cysteine measurement during constant exposure; assay type: cell-based, human; conditions: 100 uM, compared with cystamine
Protocol: as §2, with “mentioned. […]” for “mentioned.”

[11] = system: CDAHFD induced mouse models of NASH; assay: Study 1 NASH/Mouse (CDAHFD diet); assay type: in vivo, mouse (C57BL/6 male); conditions: 200 mg/kg once daily gavage for 2 weeks; for intrahepatic fibrosis: compared with control group
Protocol: Study 1—NASH/Mouse. Mice had at least received 8 weeks of CDAHFD diet before starting the study and continued to receive this diet during the next phase of the study. There were 4 mice per group (C57BL/6 male): • Control group (c1), water administered once daily by gavage for 2 weeks; • 200 mg/kg of Drug 0 once daily gavage therapy for 2 weeks; • 200 mg/kg of Drug 2 once daily gavage therapy for 2 weeks; • 200 mg/kg of Drug 4 once daily gavage therapy for 2 weeks. FIG. 10A depicts the study outline.

[12] = system: circulating white blood cells; conditions: taken regularly, measured in circulating white blood cells; cited from earlier work
[13] = 400-1000 IU/day for 4-10 months, cited from earlier work

Molecule: [2H]C([2H])(CN)SSC[C@H](NC(C)=O)C(=O)OCC [BL0940]
effect on markers of inflammation, remodeling and fibrosis [1]: did not have the same degree of effect
stability in the medium and within the cell [2]: very stable
intracellular cystine depletion (effect on cystine levels) [3]: less of an effect compared to D4-cystamine
intracellular D2-cysteamine levels (cystinotic fibroblasts [4]): increase over time
intracellular levels of BL0940 (cystinotic fibroblasts [4]; continued exposure, e.g. at 240 minute time points): increase over time

Molecule: [2H]C([2H])(CN)SC(C)=O [BL0948]
conversion of prodrug to D2-cysteamine ([2]; portion rearranges to the N-acetylated isomer): does not convert entirely to D2-cysteamine
intracellular cystine depletion (effect on cystine levels) [3]: rapid and more profound
intracellular cystine depletion (effect on cystine levels) ([3]; listed as BL-948): pronounced effect
intracellular D2-cysteamine levels (cystinotic fibroblasts [4]): relatively high level

content of resuspended drug (stability in water) [7]: contained cysteamine and cystamine
Cysteamine levels (intracellular) (cystinotic fibroblasts [8]): nearly identical
cystamine levels (intracellular) (cystinotic fibroblasts [8]): some cystamine still exists
Molecule: Cl.Cl.Cl.NCCSSC[C@H](N)C(=O)SCCN [BL-0856, (S)-3-((2-ammonioethyl)disulfaneyl)-1-((2-ammonioethyl)thio)-1-oxopropan-2-aminium chloride]
glutathione (cystinotic fibroblasts [5]; between the 2 drug forms): no obvious differences
oxidized glutathione (GSSG) (cystinotic fibroblasts [5]): goes up at the first timepoint
ratio of GSH/GSSG (cystinotic fibroblasts [5]): lower throughout all timepoints
cystine reaccumulation rate (cystinotic fibroblasts [6]): comparable to cystamine
BL-0856 and the thiol reduced intermediate in cells (cystinotic fibroblasts [8]; any of the timepoints, LC-MS/MS): not found at high enough levels to be identified
cystine depletion rates (cystinotic fibroblasts [9]): nearly identical
cysteine (intracellular) (cystinotic fibroblasts [10]): higher

Molecule: [2H]C(CN)SSC([2H])CN (stereo not shown) [D2-cystamine]
intrahepatic fibrosis [11]: significant reduction
markers of fibrosis (aSMA) ([11]; versus control groups): significant reduction
markers of inflammation (F4/80) ([11]; versus control groups): significant reduction
markers of inflammation (FIG. 12A-B) ([11]; versus control groups): significant reduction

Molecule: [2H]C([2H])(CN)SSC([2H])([2H])CN [D4-cystamine]
intrahepatic fibrosis [11]: significant reduction

Cysteamine levels (intracellular) (cystinotic fibroblasts [8]): nearly identical
cystamine levels (intracellular) (cystinotic fibroblasts [8]): higher
Molecule: NCCSSCCN [cystamine, reference compound]
oxidized glutathione (GSSG) (cystinotic fibroblasts [5]): goes up at the first timepoint
ratio of GSH/GSSG (cystinotic fibroblasts [5]): lower throughout all timepoints

Molecule: NCCS [cysteamine]
depletion of intracellular cystine [12]: up to 90%

Molecule: vitamin E
mean AST levels after treatment ([13]; decreased from 104±61 IU/L): 33±11 IU/L
mean ALT levels after treatment ([13]; decreased from 175±106 IU/L): 40±26 IU/L
